Literature values as cited in patent US20240100001A1, “DENATONIUM SALT FOR USE IN PREVENTING, PREVENTING PROGRESSION AND TREATING FATTY LIVER DISEASES” (AARDVARK THERAPEUTICS INC., priority 2021, published 2024).
Where two headings read alike, the source gives them in different places.

Assays:
[1] = system: C57BL/6 male mice fed with the methionine- and choline-deficient (MCD) diet for 4 weeks; conditions: 5 mg/kg/day PO for the last 2 weeks; cited from earlier work
[2] = system: Male DIAMOND mice fed high fat sugar water diet (WDSW) for 24 weeks; conditions: cited from earlier work
[3] = system: Male C57BL/6N mice fed choline-deficient, L-amino acid-defined, high-fat diet (CDAHFD); conditions: cited from earlier work
[4] = system: Male C57BL/6 mice fed a CDAHFD diet for 12 weeks; conditions: cited from earlier work
[5] = system: Male C57BL/6J mice fed with the AMLN diet for 50 weeks; conditions: 30 mg/kg, PO, QD for 8 weeks; cited from earlier work
[6] = system: Male C57BL/6J mice fed high fat diet for 20 weeks; conditions: 0.3 mg/kg/day PO for 20 weeks; cited from earlier work
[7] = system: C57Bl6/J mice fed a MCD diet for 3 weeks; conditions: 10 or 30 mg/kg, PO, QD for 3 weeks; cited from earlier work
[8] = system: C57BL/6 mice treated with 60% high fat diet for 36 weeks; conditions: 0.3-3 mg/kg/day PO for 24 days; cited from earlier work
[9] = system: Male C57BL/6 mice fed a CDAHFD diet for 20 weeks; conditions: cited from earlier work
[10] = system: Male C57BL/6 mice fed a fast food diet (FF diet) for 330 days; conditions: dose unknown, cited from earlier work
[11] = system: AMLN model: C57BL/6J mice placed on AMLN diet for 30 weeks; conditions: 0.03-0.9 mg/kg for the last 4 weeks; cited from earlier work
[12] = system: A mouse model of diet-induced NASH; conditions: 10 mg/kg/day PO for eight weeks; cited from earlier work
NAFLD/NASH = conditions: cited from earlier work; for benefit in NAFLD/NASH: agents tried so far
[13] = system: patients with NASH and IGT or T2DM; conditions: women and men; cited from earlier work
[14] = system: FXR-deficient mice placed on a high-fat, high-fructose, highcholesterol diet (HFFCD) for 50 weeks; conditions: cited from earlier work
[15] = system: STAM model: Streptozotocin-injected 2-day old male C57BL/6 mice fed high-fat diet; conditions: cited from earlier work
[16] = system: STAM model: Streptozotocin-injected 2-day old male C57BL/6 mice fed high-fat diet; conditions: 3 mg/kg, twice weekly, cited from earlier work
[17] = system: Male C57BL/6J mice fed with the AMLN diet for 32 weeks; conditions: SC for 12 weeks, Semaglutide 10 nmol/kg, cited from earlier work
patients with NASH = conditions: cited from earlier work
[18] = 30 mg/kg/day PO QD for the last 8 weeks
[19] = treatment started after FF diet induction for 240 days
[20] = 60 mg/kg IV twice a week for 4 weeks, early treatment cohort
[21] = SC for 2 weeks (start at Week 7)
[22] = ALT-801 5 or 10 nmol/kg (both doses)

For CCCCCCCCCCCCCCCCCCCC(=O)N[C@H]1CC[C@@]2(C)[C@@H](C1)C[C@@H](O)[C@@H]1[C@@H]2C[C@H](O)[C@]2(C)[C@@H]([C@H](C)CCC(=O)O)CC[C@@H]12 [Aramchol], the features of steatohepatitis [1] is listed as “Reduced”, the fibrosis [1] is listed as “Reduced” and the “protein expression of COL1A1 in the liver” value [1] is listed as “decreased protein”.
For COc1cccc(C(=O)COc2ccc(CC3SC(=O)NC3=O)cc2)c1 (centres unmarked) [Azemiglitazone], the ballooning ([2]; 30 mg/kg/day PO QD for the last 8 weeks (16-24 weeks)) is given as “decreased”, the “NASH CRN fibrosis score” value [2, 18] is given as “group was 0” and the “mice progressed from simple steatosis to NASH compared to the control group” value [2, 18] is given as “fewer MSDC-”. For the same compound, the “serum level of ALT” value [2, 18] was “reduced serum”, the “serum level of AST” value [2, 18] was “reduced serum” and the “serum level of fasting insulin” value [2, 18] was “reduced serum”. For the same compound, the “NAFLD Activity Score (NAS)” value ([2]; 30 mg/kg/day PO QD for the last 8 weeks, trended lower) was “(NAS) trended”.
For CCCCOCCOc1ccc(-c2ccc3c(c2)/C=C(/C(=O)Nc2ccc([S@@+]([O-])Cc4cncn4CCC)cc2)CCCN3CC(C)C)cc1 [Cenicriviroc], the “intrahepatic accumulation of inflammatory macrophages” value ([3]; 30 mg/kg/day for 4 or 14 weeks) is given as “Inhibited” and the fibrosis on histopathology ([3]; only with 30 mg/kg/day for 14 weeks, IP) is given as “improved”.
For CC[C@H]1[C@@H](O)[C@@H]2[C@H](CC[C@]3(C)[C@@H]([C@H](C)CCNC(=O)NS(=O)(=O)c4ccc(C(C)(C)C)cc4)CC[C@@H]23)[C@@]2(C)CC[C@@H](O)C[C@@H]12 [EDP-305], the fibrogenic gene expression ([4]; High dose (30 mg/kg)) is given as “decreased” and the “fibrosis progression on histopathology” value ([4]; High-dose (30 mg/kg) daily PO from the beginning of week 6) is given as “mg/kg) halted”.
In the case of CSc1ccc(C(=O)/C=C/c2cc(C)c(OC(C)(C)C(=O)O)c(C)c2)cc1 [Elafibranor], the fibrosis severity [5] is listed as “reduced”, the “histopathological score of hepatic steatosis” value [5] is listed as “reduced” and the “histopathological score of inflammation” value [5] is listed as “reduced”.
In the case of C[C@H](NC(=O)C(=O)Nc1ccccc1C(C)(C)C)C(=O)N[C@@H](CC(=O)O)C(=O)COc1c(F)c(F)cc(F)c1F [Emricasan], the HOMA-IR [6] is listed as “Decreased”, the ballooning on histopathology [6] is listed as “Improved” and the fibrosis on histopathology [6] is listed as “Improved”. The “fibrotic and inflammatory gene signature” value [6] was “Decreased”, the inflammation on histopathology [6] was “Improved” and the “serum level of ALT” value [6] was “Decreased”. For the same compound, the “serum level of AST” value [6] was “Decreased”, the “serum level of cholesterol” value [6] was “Decreased” and the “serum level of glucose” value [6] was “Decreased”.
In the case of O=C(O)CCCc1cc2cc(Cl)ccc2n1S(=O)(=O)c1ccc2ncsc2c1 [Lanifibranor], the inflammation on histopathology [7] is given as “prevented”, the liver triglyceride levels [7] is given as “decreased” and the “plasma alanine aminotransferase levels” value [7] is given as “reduced plasma”. For the same compound, the serum triglyceride levels [7] was “decreased” and the steatosis on histopathology [7] was “prevented”.
For CC(C)c1cc(Oc2c(Cl)cc(-n3nc(C#N)c(=O)[nH]c3=O)cc2Cl)n[nH]c1=O [Resmetirom], the “fibrosis in treated livers” value [8] is listed as “No detectable”, the “inflammation in treated livers” value [8] is listed as “No detectable” and the insulin sensitivity [8] is listed as “Improved”. The “reduced serum level of ALT” value [8] was “(46%), free”, the “reduced serum level of cholesterol” value [8] was “(67%)” and the “steatosis in treated livers” value [8] was “No detectable”.
In the case of CCO[C@@H](Cc1ccc(OCCn2c(C)ccc2-c2ccc(SC)cc2)cc1)C(=O)O [Saroglitazar], the ballooning ([9]; 3 mg/kg PO for 12 weeks) is given as “reduced or no”, the hepatic steatosis ([9]; 3 mg/kg PO for 12 weeks) is given as “reversal of” and the vacuolation ([9]; 3 mg/kg PO for 12 weeks) is given as “reduced or no”. For the same compound, the “Liver lipid (TG) accumulation attenuated” value ([9]; 3 mg/kg) was 79%, the “hepatic fibrogenic and inflammatory gene expression” value ([9]; 3 mg/kg) was “also reduced” and the “liver TNFα levels” value ([9]; 3 mg/kg) was “also reduced”. The “liver collagen content attenuated” value ([9]; 3 mg/kg) was 41%, the “reduced serum level of ALT” value ([9]; 3 mg/kg) was “(60%), AST” and the “reduced serum level of MCP1” value ([9]; 3 mg/kg) was “MCP1 (45%)”.
In the case of Cc1cc(F)c(C(=O)Nc2cccc(-c3nncn3C(C)C)n2)cc1-n1cnc(C2CC2)c1 [Selonsertib], the Reduced liver cholesterol [10] is listed as 45%, the Reduced serum cholesterol [10] is listed as 14% and the serum bile acids [10] is listed as “reduced serum”. The serum cholate reduction [10] was “cholate (91%”, the serum deoxycholate reduction [10] was “(90% reduction)” and the fibrosis [10, 19] was “reduced liver”. The insulin resistance [10, 19] was “reduced liver” and the liver steatosis [10, 19] was “reduced liver”.
For O=C(O)c1cc(F)c2nc(N3[C@@H]4CC[C@H]3C[C@@H](OCc3c(-c5ccccc5OC(F)(F)F)noc3C3CC3)C4)sc2c1 [Tropifexor], the fibrosis [11] is given as “reduced”, the “hepatic inflammation cell populations” value [11] is given as “reduced mRNA” and the inflammation [11] is given as “reduced”. The “mRNA levels of fibrogenic markers” value [11] was “reduced mRNA” and the steatosis [11] was “reduced”.
In the case of Cc1cc(OCP2(=O)OCC[C@@H](c3cccc(Cl)c3)O2)cc(C)c1Cc1ccc(O)c(C(C)C)c1 (some centres unmarked) [VK2809], the “NAS score mean improvement” value [12] is listed as “score (a 40%”, the “all subcomponents of NAS (inflammation, ballooning, and steatosis)” value [12] is listed as “Improvements” and the “liver content of cholesterol” value [12] is listed as “improved liver”. The “liver content of collagen” value [12] was “improved liver”, the “liver content of hydroxyproline” value [12] was “improved liver” and the “liver content of triglyceride” value [12] was “improved liver”. For the same compound, the “liver fibrosis on histopathology” value [12] was “improved NAS”, the plasma cholesterol [12] was “reduced plasma” and the plasma triglycerides [12] was “reduced plasma”.
For CCCCCCCCCCC[C@@H](C[C@@H]1OC(=O)[C@H]1CCCCCC)OC(=O)[C@H](CC(C)C)NC=O [orlistat], the “benefit compared to diet and exercise (weight loss alone)” value (NAFLD/NASH; in vivo) is listed as “no significant benefit”.
For CC(=O)CCCCn1c(=O)c2c(ncn2C)n(C)c1=O [pentoxifylline], the “benefit in NAFLD/NASH” value (NAFLD/NASH) is given as “unsuccessfully or with only modest benefit”.
In the case of CCc1ccc(CCOc2ccc(CC3SC(=O)NC3=O)cc2)nc1 (centres unmarked) [pioglitazone], the “risk of weight gain, edema, congestive heart failure, and osteoporotic fractures” value [13] is listed as “significantly increased risk”.
For O=C1O[C@H]([C@@H](O)CO)C(O)=C1O [vitamin C], the “benefit in NAFLD/NASH” value (NAFLD/NASH) is given as “unsuccessfully or with only modest benefit”.
In the case of Cc1c(C)c2c(c(C)c1O)CC[C@@](C)(CCC[C@H](C)CCC[C@H](C)CCCC(C)C)O2 [vitamin E, α-tocopherol], the “benefit in NAFLD/NASH” value (NAFLD/NASH) is given as “unsuccessfully or with only modest benefit”.
For Aldafermin, the “hepatic expression of inflammatory and fibrotic biomarkers” value ([14]; delivered by AAV at Week 16) is listed as “decreased”, the hepatocellular fibrosis ([14]; delivered by AAV at Week 16) is listed as “reduced” and the “serum level of ALT” value ([14]; delivered by AAV at Week 16) is listed as “reduced serum”. The “serum level of AST” value ([14]; delivered by AAV at Week 16) was “reduced serum”, the spleen weight ([14]; delivered by AAV at Week 16) was “reduced liver” and the steatosis ([14]; delivered by AAV at Week 16) was “not impact”. For the same compound, the liver weight ([14]; delivered by adeno-associated viral vector (AAV) at Week 16) was “reduced liver”.
In the case of Belapectin, the “expression of pathological indicators including iNOS, CD36, and a-smooth muscle actin” value ([15]; 60 mg/kg IV twice a week for 4 weeks) is given as “reduced the”, the fat deposition ([15]; 60 mg/kg IV twice a week for 4 weeks, early treatment cohort (from Week 6)) is given as “Decreased fat” and the hepatocellular ballooning [15, 20] is given as “Decreased fat”. For the same compound, the inflammatory infiltrate [15, 20] was “Decreased fat”, the NAS score ([15]; early treatment cohort (from Week 6), significant) was “improved NAS” and the “NAS versus vehicle control” value ([15]; late treatment cohort (from Week 9), did not reach significance) was “improvement”.
In the case of Pegbelfermin, the “mean grade for hepatocellular ballooning” value [16, 21] is given as “decreased”, the “mean grade for lobular inflammation” value [16, 21] is given as “decreased” and the “mean grade for steatosis” value [16, 21] is given as “decreased”. The “decrease of mean serum fibrosis biomarker Pro-C3” value ([16]; SC for 2 weeks) was “C3 by 44%”, the liver triglycerides ([16]; SC for 2 weeks) was “improved” and the liver/body weight ratio ([16]; SC for 2 weeks) was “(−20%), as well”. For the same compound, the plasma triglycerides ([16]; SC for 2 weeks) was “improved” and the whole blood glucose ([16]; SC for 2 weeks) was “glucose (−30%),”.
In the case of semaglutide, the NAS overall score [17, 22] is given as “decreased liver”, the liver weight [17, 22] is given as “decreased liver” and the “liver TG level” value ([17]; ALT-801 5 or 10 nmol/kg) is given as “decreased liver”. For the same compound, the “liver content of fibrosis markers” value ([17]; ALT-801 5 or 10 nmol/kg) was “decreased liver”, the “liver total cholesterol level” value ([17]; ALT-801 5 or 10 nmol/kg) was “decreased liver” and the “plasma ALT level” value ([17]; ALT-801 5 or 10 nmol/kg) was “decreased liver”. The “percentage of patients with NASH resolution and no worsening of fibrosis” value (patients with NASH; 0.1-mg group) was 40%, the “percentage of patients with NASH resolution and no worsening of fibrosis” value (patients with NASH; 0.2-mg group) was 36% and the “mean percent weight loss” value (patients with NASH; 0.4-mg group) was 13%. The “percentage of patients with NASH resolution and no worsening of fibrosis” value (patients with NASH; 0.4-mg group) was 59%, the “percentage of patients with an improvement in fibrosis stage vs placebo” value (patients with NASH; daily subcutaneous) was “did not show a significant between-group difference” and the incidence of constipation (patients with NASH; human, in vivo) was 22%. The incidence of nausea (patients with NASH; human, in vivo) was 42%, the incidence of vomiting (patients with NASH; human, in vivo) was 15% and the “patients with malignant neoplasms” value (patients with NASH; human, in vivo) was 1%. The “patients with neoplasms (benign, malignant, or unspecified)” value (patients with NASH; human, in vivo) was 15%.
